Source: patent US8993632B2, “Inhibitors of the 11-beta-hydroxysteroid dehydrogenase type 1 enzyme” (AbbVie Inc., priority 2005, dated 2015)

Experiments:
[1] = Metabolic stability screen, human liver microsomes; format: in vitro ADME; settings: 10 μM substrate, 30 min incubation, 37° C., 1 mM NADPH
Method: (§1) Metabolic stability screen: each substrate (10 μM) was incubated with microsomal protein (0.1-0.5 mg/ml) in 50 mM potassium phosphate buffer (pH 7.4) in 48-Well plate. The enzyme reaction was initiated by the addition of 1 mM NADPH, then incubated at 37° C. in a Form a Scientific incubator (Marietta, Ohio, USA) with gentle shaking. The reactions were quenched by the addition of 800 μl of ACN/MeOH (1:1, v/v), containing 0.5 μM of internal standard (IS), after 30 min incubation. Samples were then filtered by using Captiva 96-Well Filtration (Varian, Lake Forest, Calif., USA) and analyzed by LC/MS (mass spectrometry). Liver microsomal incubations were conducted in duplicate.
(§2) The parent remaining in the incubation mixture was determined by LC/MS. The LC/MS system consisted of an Agilent 1100 series (Agilent Technologies, Waldbronn, Germany) and API 2000 (MDS SCIEX, Ontario, Canada). A Luna C8(2) (50×2.0 mm, particle size 3 μm, Phenomenex, Torrance, Calif., USA) was used to quantify each compound at ambient temperature. The mobile phase consisted of (A): 10 mM NH4AC (pH 3.3) and (B): 100% ACN and was delivered at a flow rate of 0.2 ml/min. Elution was achieved using a linear gradient of 0-100% B over 3 min, then held 100% B for 4 min and returned to 100% A in 1 min. The column was equilibrated for 7 min before the next injection.
(§3) The peak area ratios (each substrate over IS) at each incubation time were expressed as the percentage of the ratios (each substrate over IS) of the control samples (0 min incubation). The parent remaining in the incubation mixture was expressed as the percentage of the values at 0 min incubation. The percentage turnover is calculated using the following equation (% turnover=100% turnover−% parent remaining) and is recorded as the percentage turnover in the Table 2.

[2] = target: T1, human 11-β-HSD-2 (Homo sapiens, UniProt P80365); test: 11β-HSD-2 Scintillation Proximity Assay (tritiated cortisol, NAD+); format: biochemical; settings: human enzyme, SPA
T1 sequence (P80365 1-405): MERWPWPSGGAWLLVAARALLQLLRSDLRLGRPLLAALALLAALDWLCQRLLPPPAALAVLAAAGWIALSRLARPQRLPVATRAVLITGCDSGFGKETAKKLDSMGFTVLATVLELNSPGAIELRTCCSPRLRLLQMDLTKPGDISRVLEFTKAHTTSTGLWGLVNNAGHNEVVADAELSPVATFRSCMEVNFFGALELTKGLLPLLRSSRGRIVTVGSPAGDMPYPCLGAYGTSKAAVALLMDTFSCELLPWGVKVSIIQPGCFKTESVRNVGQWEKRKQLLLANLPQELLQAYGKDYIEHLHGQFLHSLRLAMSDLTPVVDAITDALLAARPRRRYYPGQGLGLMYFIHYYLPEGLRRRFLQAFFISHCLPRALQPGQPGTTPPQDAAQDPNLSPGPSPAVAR
Method: (§4) The reaction was stopped by adding a non-specific 11β-HSD inhibitor, 18β-glycyrrhetinic acid. The tritiated cortisol was captured by a mixture of an anti-cortisol monoclonal antibody and SPA beads coated with anti-mouse antibodies. The reaction plate was shaken at room temperature and the radioactivity bound to SPA beads was then measured on a β-scintillation counter. The 11-βHSD-1 assay was carried out in 96-well microtiter plates in a total volume of 220 μl. […] In order to drive the reaction in the forward direction, 1 mM G-6-P was also added. Solid compound was dissolved in DMSO to make a 10 mM stock followed by a subsequent 10-fold dilution with 3% DMSO in Tris/EDTA buffer (pH 7.4). […] Reactions were initiated by the addition of 10 μl of 0.1 mg/ml E. coli lysates overexpressing 11β-HSD-1 enzyme. After shaking and incubating plates for 30 minutes at room temperature, reactions were stopped by adding 10 μl of 1 mM glycyrrhetinic acid. The product, tritiated cortisol, was captured by adding 10 μl of […] monoclonal anti-cortisol antibodies and 100 μl SPA beads coated with anti-mouse antibodies. After shaking for 30 minutes, plates were read on a liquid scintillation counter Topcount. Percent inhibition was calculated based on the background and the maximal signal. Wells that contained substrate without compound or enzyme were used as the background, while the wells that contained substrate and enzyme without any compound were considered as maximal signal. Percent of inhibition of each compound was calculated relative to the maximal signal and IC50 curves were generated. This assay was applied to 11β-HSD-2 as well, whereby tritiated cortisol and NAD^+ were used as substrate and cofactor, respectively.

[3] = Metabolic stability screen, mouse liver microsomes; format: in vitro ADME; settings: 10 μM substrate, 30 min incubation, 37° C., 1 mM NADPH
Method: as §1, §2, §3

[4] = target: T2, truncated human 11β-HSD-1 enzyme (24-287AA) (Homo sapiens, UniProt P28845); test: 11β-HSD-1 enzymatic Scintillation Proximity Assay (SPA); format: biochemical
T2 construct: truncated human 11β-HSD-1 enzyme (24-287AA); made in house; host or cells: E. coli (crude lysate)
Method: as §4

[5] = test system: CD-1 mice; test: 24-hour inhibitory avoidance in mice after subchronic (3 administration) dosing; format: in vivo; settings: 30 mg/kg PO, BID the day before and one hour before training, vs vehicle control mice
Method: Male CD-1 mice were obtained from Charles River, Wilmington, Mass. Mice were group-housed 10 per cage. The body weight upon arrival was 20-25 g. Food and water were available ad libitum except during experiments. Animals were acclimated to the animal facilities for a period of at least one week prior to commencement of experiments. Animals were tested in the light phase of a 12-hour light: 12-hour dark schedule (lights on 0600 hours).
Compound KK and Compound LL were synthesized at Abbott Laboratories. […] Compound KK was administered in a cloudy, fine suspension, while Compound LL was administered in a solution.
On training day, mice were injected with Compound KK, Compound LL or vehicle one-hour PO before training. One hour following injection (start of training) mice were subjected to a training session in which they were placed in a lighted compartment of a two-compartment chamber (Gemini apparatus, San Diego Instruments, San Diego, Calif.) with a manually operated gate separating the compartments. […] Twenty-four hours later mice were again tested in the same apparatus, except without shock, and the transfer latency from the lighted to the dark compartment recorded and used as an index of memory for the punished response 24 hours earlier. […] Data were analyzed using Mann Whitney U comparisons. […]

T2 sequence (P28845 24-287): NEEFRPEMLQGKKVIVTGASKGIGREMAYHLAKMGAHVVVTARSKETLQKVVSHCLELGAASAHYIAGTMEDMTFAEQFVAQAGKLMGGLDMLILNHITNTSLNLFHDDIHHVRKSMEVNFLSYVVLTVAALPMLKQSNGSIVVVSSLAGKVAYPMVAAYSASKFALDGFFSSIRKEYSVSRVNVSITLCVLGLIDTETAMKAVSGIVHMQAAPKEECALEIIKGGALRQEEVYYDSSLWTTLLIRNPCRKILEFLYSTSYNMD

Compound	Human Liver Microsomal Turnover (%) [1]	IC50 [2]	Mouse Liver Microsomal Turnover (%) [3]	IC50 [4]	memory retention (transfer latency), FIG. 3 [5]
O=C(O)C12CC3CC(C1)C(NC(=O)C1(c4ccc(Cl)cc4)CCC1)C(C3)C2 (stereo not shown) [Compound A, E-4-{[1-(4-Chloro-phenyl)-cyclobutanecarbonyl]-amino}-adamantane-1-carboxylic acid]	5%	> 10 µM	5%	0.043 µM	
O=C(O)C12CC3CC(C1)C(NC(=O)C1(c4ccccc4)CC1)C(C3)C2 (stereo not shown) [B, E-4-[(1-Phenyl-cyclopropanecarbonyl)-amino]-adamantane-1-carboxylic acid]	2%		0%	0.102 µM	
CC(C)(C(=O)NC1C2CC3CC(C2)CC1C3)c1ccccc1 (stereo not shown) [E, N-2-adamantyl-2-methyl-2-phenylpropanamide]	83%				
Cc1ccccc1CN1CCCC(C)(C(=O)NC2C3CC4CC2CC(C(N)=O)(C4)C3)C1=O (stereo not shown) [Compound AA]					significant improvement in memory retention
O=C(NC1C2CC3CC(C2)CC1C3)C1(c2ccccc2)CC1 (stereo not shown) [F, N-2-adamantyl-1-phenylcyclopropanecarboxamide]	62%				
CC(C)(C(=O)N[C@@H]1[C@@H]2C[C@@H]3C[C@H]1C[C@@](C(=O)O)(C3)C2)c1ccccc1 [C, E-4-(2-Methyl-2-phenyl-propionylamino)-adamantane-1-carboxylic acid]	0%	> 10 µM	0%	0.082 µM	
CC1(C(=O)N[C@@H]2[C@@H]3C[C@@H]4C[C@H]2C[C@@](C(N)=O)(C4)C3)CCN(Cc2ccccc2)C1=O (stereo partly shown) [BB]					significant improvement in memory retention
NC(=O)C12CC3CC(C1)C(NC(=O)C1(c4ccc(Cl)cc4)CCC1)C(C3)C2 (stereo not shown) [D, E-4-{[1-(4-Chloro-phenyl)-cyclobutanecarbonyl]-amino}-adamantane-1-carboxylic acid amide]	10%				
